{"source": "patent US20080139578A1", "about": "“Substituted piperizines for the treatment of pain” (priority 2006, published 2008)", "format_in_all_cases": "in vivo", "key": {"[1]": {"test_system": "rats (Sprague-Dawley, Harlan)", "test": "Spared Nerve Ligation (SNL)-induced allodynia model (von Frey filaments)", "details": "rat SNL model", "protocol": "For the neuropathic pain model, rats (Sprague-Dawley, Harlan) were anesthetized with isoflurane and were placed on a heating pad. Using aseptic techniques, the L5 spinal nerve was exposed and ligated. Muscle and skin were closed with 4-0 Polydiaxone and wound clips, respectively. Animals were tested for allodynia 4 weeks post SNL surgery. Only rats that developed allodynia as defined by a significant decrease in their mechanical threshold using von Frey filaments, were used for evaluating the compound. Tactile allodynia was assessed with calibrated von Frey filaments (Stoelting Co), using an up-down paradigm before and at 2 hr and 44 hr post-compound administration. Data are expressed as % reversal=(post-treatment−post-vehicle)/(pre-SNL threshold−post-vehicle)×100."}, "[2]": {"test_system": "Male Sprague Dawley rats", "test": "Rodent CFA model of inflammatory pain (mechanical hyperalgesia, Ugo Basile paw pressure)", "details": "rat CFA model"}, "[3]": {"test_system": "Male Sprague-Dawley (Charles River) rats", "test": "Capsaicin-induced allodynia model (von Frey filaments)", "details": "rat", "protocol": "Male Sprague-Dawley (Charles River) rats were habituated to the von Frey stands for 4 hr the day prior to the testing day. Tactile allodynia was assessed using calibrated von Frey filaments (up-down method) before and 30, 60 and 120 min post capsaicin injection. Capsaicin (30 μg in 10 μl) was diluted in Ethanol:Tween80:Saline (20:7:73) and administered into the rat left paw. The test compound is administered P.O. at 3, 10 or 30 mg/kg (4 ml/kg) 30 min prior to capsaicin administration. Data are expressed as % inhibition=(post-treatment−post-vehicle)/(pre-capsaicin threshold−post-vehicle)×100. Statistic analysis: 2-way ANOVA (time and dose) and Bonferroni post-hoc analysis comparing each dose to vehicle."}}}
{"compound": "O=C(CC(c1ccccc1)c1ccccc1)N1CCNCC1", "note": "[Example 1, 1-(3,3-diphenylpropanoyl)piperazine]", "values": [{"measurement": "maximal percent reversal of allodynia", "setting": "[1]; 3 mg/kg P.O.", "value": 11, "unit": "%"}, {"measurement": "maximal percent reversal of allodynia", "setting": "[1]; 10 mg/kg P.O.", "value": 47, "unit": "%"}, {"measurement": "maximal percent reversal of allodynia", "setting": "[1]; 30 mg/kg P.O.", "value": 47, "unit": "%"}, {"measurement": "reversal of hyperalgesia", "setting": "[2]; 3 mg/kg P.O., 3 hr post-dose", "value": 17, "unit": "%"}, {"measurement": "reversal of hyperalgesia", "setting": "[2]; 3 mg/kg P.O., one hour post-dose", "value": 26, "unit": "%"}, {"measurement": "reversal of hyperalgesia", "setting": "[2]; 10 mg/kg P.O., 3 hr post-dose", "value": 39, "unit": "%"}, {"measurement": "reversal of hyperalgesia", "setting": "[2]; 10 mg/kg P.O., one hour post-dose", "value": 43, "unit": "%"}, {"measurement": "reversal of hyperalgesia", "setting": "[2]; 30 mg/kg P.O., 3 hr post-dose", "value": 44, "unit": "%"}, {"measurement": "reversal of hyperalgesia", "setting": "[2]; 30 mg/kg P.O., one hour post-dose", "value": 63, "unit": "%"}, {"measurement": "maximal percent inhibition of allodynia", "setting": "[3]; 3 mg/kg P.O. 30 min before capsaicin challenge", "value": 33, "unit": "%"}, {"measurement": "maximal percent inhibition of allodynia", "setting": "[3]; 10 mg/kg P.O. 30 min before capsaicin challenge", "value": 46, "unit": "%"}, {"measurement": "maximal percent inhibition of allodynia", "setting": "[3]; 30 mg/kg P.O. 30 min before capsaicin challenge", "value": 89, "unit": "%"}]}
